Results on 29 compounds are retold here after patent publication US20240116946A1 (Gilead Sciences, Inc., priority 2022, published 2024).

Read-outs that look alike come from different tables or passages of the source.

The target in test [1] is recombinant SARS-CoV-2 Main protease (Mpro) (Severe acute respiratory syndrome coronavirus 2 (2019-nCoV) (SARS-CoV-2), UniProt P0DTD1). In words: Cov Mpro Biochemical IC50 Assay. The following applies: read-out: MPro IC50.
Another test relates to SARS-CoV-2-NLuc. Nature of the test: microbe, parasite or virus in culture. The following applies: read-out: MPro EC50. The test is classed as cell-based, SARS Coronavirus 2.
[2] abbreviates: recombinant SARS-CoV-2 Mpro 7.5 nM, fluorogenic peptide substrate 40 μM.
Where [3] appears, read: Severe acute respiratory syndrome coronavirus, 48 h.
Setting [4] is: recombinant SARS-CoV-2 Mpro, fluorogenic peptide substrate.

For orientation: IC50 means the concentration at which inhibition is half-maximal. For orientation: EC50 means the concentration needed to bring the measured effect to its halfway point. As for “5-fluoro-2-[6-fluoro-3-(4-isoquinolyl)-2,4-dioxo-1H-quinazolin-7-yl]-4-methoxy-benzonitrile [Example 517]”, the IC50 in test [1] (setting [2]) was found to be 9.51 nM. Moreover, the EC50 with SARS-CoV-2-NLuc came to 35.9 nM. For “6-[2-chloro-6-(8-methyl-[1,2,4]triazolo[1,5-a]pyridin-6-yl)phenyl]-3-(6-methoxy-4-isoquinolyl)-1H-thieno[3,2-d]pyrimidine-2,4-dione [Example 565]”, the IC50 in test [1] (setting [2]) was determined as 16.5 nM. Besides, the EC50 with SARS-CoV-2-NLuc turned out to be 58.1 nM.

In the case of `COc1ccc(C#N)c(-c2cc3c(cc2F)c(=O)n(-c2cncc4ccccc24)c(=O)n3CC#N)c1` (atropisomer, axis not shown) [Example 701], in test [1] (setting [2]), the IC50 is less than 3.63 nM. Further, the EC50 in the test on SARS-CoV-2-NLuc (setting [3]) is 79.9 nM.

In the case of `COc1ccc(Cl)c(-c2cc3c(s2)c(=O)n(-c2cncc4ccccc24)c(=O)n3CC#N)c1` (atropisomer, axis not shown) [Example 702], the IC50 in test [1] (setting [2]) was less than 2.98 nM. Also, the EC50 in the test with SARS-CoV-2-NLuc (setting [3]) came to 2.4 nM.

On to `COc1cc(-c2cc3c(s2)c(=O)n(-c2cncc4cccc(C)c24)c(=O)n3CCC#N)c(Cl)cc1F` (atropisomer, axis not shown) [Example 920], for which the IC50 in test [1] (setting [2]) stood at 5.5 nM. The concentration giving a half-maximal response (EC50) with SARS-CoV-2-NLuc (setting [3]) came to 4.25 nM. Consider `O=c1[nH]c2cc(-c3ccccc3Cl)ccc2c(=O)n1-c1cncc2ccccc12` (single isomer, unassigned) [Example 104, 7-(2-chlorophenyl)-3-(isoquinolin-4-yl)quinazoline-2,4(1H,3H)-dione], for which, in test [1] (setting [4]), the IC50 worked out at 6790 nM. The EC50 in the test on SARS-CoV-2-NLuc was 3920 nM. For `O=c1[nH]c2cc(-c3ccccc3Cl)ccc2c(=O)n1-c1cncc2ccccc12` (single isomer, unassigned) [Example 105, 7-(2-chlorophenyl)-3-(isoquinolin-4-yl)quinazoline-2,4(1H,3H)-dione], in test [1] (setting [4]), the 50% inhibitory concentration (IC50) came to 70.9 nM. Moreover, the EC50 with SARS-CoV-2-NLuc was determined as 74.3 nM. As to `O=c1[nH]c2cc(-c3ccccc3Cl)sc2c(=O)n1-c1cncc2ccccc12` (single isomer, unassigned) [Example 150, 6-(2-chlorophenyl)-3-(isoquinolin-4-yl)thieno[3,2-d]pyrimidine-2,4(1H,3H)-dione], in test [1] (setting [4]), the IC50 was 73 nM. The EC50 with SARS-CoV-2-NLuc was determined as 124 nM.

As to `O=c1[nH]c2cc(-c3ccccc3Cl)sc2c(=O)n1-c1cncc2ccccc12` (single isomer, unassigned) [Example 151, 6-(2-chlorophenyl)-3-(isoquinolin-4-yl)thieno[3,2-d]pyrimidine-2,4(1H,3H)-dione], in test [1] (setting [4]), the IC50 was less than 2.54 nM. For the same compound, the EC50 in the test with SARS-CoV-2-NLuc stood at 1.73 nM. For `COc1ccc(C#N)c(-c2cc3[nH]c(=O)n(-c4cncc5ccccc45)c(=O)c3cc2F)c1` (single isomer, unassigned) [Example 438, 2-(6-fluoro-3-(isoquinolin-4-yl)-2,4-dioxo-1,2,3,4-tetrahydroquinazolin-7-yl)-4-methoxybenzonitrile], the IC50 in test [1] (setting [2]) is less than 4.17 nM. Besides, in the test with SARS-CoV-2-NLuc, the concentration for a half-maximal effect (EC50) is less than 11.4 nM.

As for `COc1ccc(C#N)c(-c2cc3[nH]c(=O)n(-c4cncc5ccccc45)c(=O)c3cc2F)c1` (single isomer, unassigned) [Example 439, 2-(6-fluoro-3-(isoquinolin-4-yl)-2,4-dioxo-1,2,3,4-tetrahydroquinazolin-7-yl)-4-methoxybenzonitrile], the IC50 in test [1] (setting [2]) was determined as 828 nM. For the same compound, in the test on SARS-CoV-2-NLuc, the EC50 came to 377 nM. In the case of `COc1ccc2cncc(-n3c(=O)[nH]c4cc(-c5ccccc5Cl)sc4c3=O)c2c1` (single isomer, unassigned) [Example 441, 6-(2-chlorophenyl)-3-(6-methoxyisoquinolin-4-yl)thieno[3,2-d]pyrimidine-2,4(1H,3H)-dione], the IC50 in test [1] (setting [2]) turned out to be 109 nM. For the same compound, in the test on SARS-CoV-2-NLuc, the EC50 turned out to be 239 nM. Consider `O=c1[nH]c2cc(-c3ccccc3Cl)sc2c(=O)n1-c1cncc2ccc(N3CCOCC3)cc12` (single isomer, unassigned) [Example 443, 6-(2-chlorophenyl)-3-(6-morpholinoisoquinolin-4-yl)thieno[3,2-d]pyrimidine-2,4(1H,3H)-dione], for which the IC50 in test [1] (setting [2]) amounted to 18.8 nM. Further, the EC50 in the test with SARS-CoV-2-NLuc was found to be 45 nM. With `Cn1cc(-c2cccc(Cl)c2-c2cc3[nH]c(=O)n(-c4cncc5ccccc45)c(=O)c3s2)c(C(F)(F)F)n1` (single isomer, unassigned) [Example 448, 6-(2-chloro-6-(1-methyl-3-(trifluoromethyl)-1H-pyrazol-4-yl)phenyl)-3-(isoquinolin-4-yl)thieno[3,2-d]pyrimidine-2,4(1H,3H)-dione], in test [1] (setting [2]), the IC50 came out at 383 nM. Also, in the test on SARS-CoV-2-NLuc, the EC50 was 382 nM. The like results for `O=c1[nH]c2cc(-c3ccccc3Cl)sc2c(=O)n1-c1cncc2cccnc12` (single isomer, unassigned) [Example 463, 6-(2-chlorophenyl)-3-(1,6-naphthyridin-8-yl)thieno[3,2-d]pyrimidine-2,4(1H,3H)-dione] were, in that order, 202 nM and 464 nM. The like results for `COc1ccc(Cl)c(-c2cc3[nH]c(=O)n(-c4cncc5ccccc45)c(=O)c3s2)c1` (single isomer, unassigned) [Example 466, 6-(2-chloro-5-methoxyphenyl)-3-(isoquinolin-4-yl)thieno[3,2-d]pyrimidine-2,4(1H,3H)-dione] were, in that order, 156 nM and 152 nM. As to `COc1ccc(Cl)c(-c2cc3[nH]c(=O)n(-c4cncc5cccnc45)c(=O)c3s2)c1` (single isomer, unassigned) [Example 467, 6-(2-chloro-5-methoxyphenyl)-3-(1,6-naphthyridin-8-yl)thieno[3,2-d]pyrimidine-2,4(1H,3H)-dione], the IC50 in test [1] (setting [2]) is 11.4 nM. The EC50 in the test on SARS-CoV-2-NLuc was 38.1 nM.

Consider `COc1ccc(Cl)c(-c2ccc3c(=O)n(-c4cncc5ccccc45)c(=O)[nH]c3c2)c1` (single isomer, unassigned) [Example 476, 7-(2-chloro-5-methoxy-phenyl)-3-(4-isoquinolyl)-1H-quinazoline-2,4-dione], for which the IC50 in test [1] (setting [2]) came to 258 nM. In addition, in the test with SARS-CoV-2-NLuc, the half-maximal effective concentration (EC50) came out at 259 nM.

Turning to `Cn1cnc(Cn2c(=O)n(-c3cncc4ccccc34)c(=O)c3sc(-c4ccccc4Cl)cc32)n1` (single isomer, unassigned) [Example 478, 6-(2-chlorophenyl)-3-(4-isoquinolyl)-1-[(1-methyl-1,2,4-triazol-3-yl)methyl]thieno[3,2-d]pyrimidine-2,4-dione], the IC50 in test [1] (setting [2]) was 4290 nM. The EC50 in the test with SARS-CoV-2-NLuc stood at 8280 nM. Consider `COc1cc(-c2cc3[nH]c(=O)n(-c4cncc5ccccc45)c(=O)c3cc2F)c(C#N)cc1F` (single isomer, unassigned) [Example 510, 5-fluoro-2-[6-fluoro-3-(4-isoquinolyl)-2,4-dioxo-1H-quinazolin-7-yl]-4-methoxy-benzonitrile], for which the IC50 in test [1] (setting [2]) stood at 7.05 nM. Further, in the test on SARS-CoV-2-NLuc, the EC50 turned out to be 16.2 nM. For the compound `COc1cc(-c2cc3[nH]c(=O)n(-c4cncc5ccccc45)c(=O)c3cc2F)c(C#N)cc1F` (single isomer, unassigned) [Example 511, 5-fluoro-2-[6-fluoro-3-(4-isoquinolyl)-2,4-dioxo-1H-quinazolin-7-yl]-4-methoxy-benzonitrile], the IC50 in test [1] (setting [2]) came to 913 nM. The EC50 in the test on SARS-CoV-2-NLuc came to 604 nM. Regarding `COc1ccc(C#N)c(-c2cc3[nH]c(=O)n(-c4cncc5ccccc45)c(=O)c3s2)c1` (single isomer, unassigned) [Example 554, 2-(3-(isoquinolin-4-yl)-2,4-dioxo-1,2,3,4-tetrahydrothieno[3,2-d]pyrimidin-6-yl)-4-methoxybenzonitrile], in test [1] (setting [2]), the IC50 was determined as 3.88 nM. Also, the EC50 in the test on SARS-CoV-2-NLuc amounted to 14.9 nM. On to `COc1ccc(C#N)c(-c2cc3[nH]c(=O)n(-c4cncc5ccccc45)c(=O)c3s2)c1` (single isomer, unassigned) [Example 555, 2-(3-(isoquinolin-4-yl)-2,4-dioxo-1,2,3,4-tetrahydrothieno[3,2-d]pyrimidin-6-yl)-4-methoxybenzonitrile], for which the IC50 in test [1] (setting [2]) is 21.5 nM. Besides, in the test on SARS-CoV-2-NLuc, the EC50 is 79.6 nM. Turning to `COc1cc(-c2cc3[nH]c(=O)n(-c4cncc5ccccc45)c(=O)c3s2)c(Cl)cc1F` (single isomer, unassigned) [Example 556, 6-(2-chloro-4-fluoro-5-methoxyphenyl)-3-(isoquinolin-4-yl)thieno[3,2-d]pyrimidine-2,4(1H,3H)-dione], the IC50 in test [1] (setting [2]) was 3.41 nM. In addition, the EC50 in the test with SARS-CoV-2-NLuc was found to be 2.04 nM. With `COc1cc(-c2cc3[nH]c(=O)n(-c4cncc5ccccc45)c(=O)c3s2)c(Cl)cc1F` (single isomer, unassigned) [Example 557, 6-(2-chloro-4-fluoro-5-methoxyphenyl)-3-(isoquinolin-4-yl)thieno[3,2-d]pyrimidine-2,4(1H,3H)-dione], the IC50 in test [1] (setting [2]) was found to be 103 nM. The EC50 in the test with SARS-CoV-2-NLuc was determined as 65.4 nM.

Take `COc1ccc(C#N)c(-c2ccc3c(=O)n(-c4cncc5ccccc45)c(=O)[nH]c3c2)c1` (single isomer, unassigned) [Example 569, 2-[3-(4-isoquinolyl)-2,4-dioxo-1H-quinazolin-7-yl]-4-methoxy-benzonitrile]: the IC50 in test [1] (setting [2]) is 8.41 nM. Moreover, in the test with SARS-CoV-2-NLuc, the EC50 was 20.5 nM.

`COc1ccc(C#N)c(-c2ccc3c(=O)n(-c4cncc5ccccc45)c(=O)[nH]c3c2)c1` (single isomer, unassigned) [Example 570, 2-[3-(4-isoquinolyl)-2,4-dioxo-1H-quinazolin-7-yl]-4-methoxy-benzonitrile]: the IC50 in test [1] (setting [2]) turned out to be 1310 nM. In the test on SARS-CoV-2-NLuc, the half-maximal effective concentration (EC50) was 700 nM. For the compound `COc1cc(-c2cc3[nH]c(=O)n(-c4cncc5ccccc45)c(=O)c3cc2OC)c(C#N)cc1F` (single isomer, unassigned) [Example 571, 5-fluoro-2-[3-(4-isoquinolyl)-6-methoxy-2,4-dioxo-1H-quinazolin-7-yl]-4-methoxy-benzonitrile], the IC50 in test [1] (setting [2]) is 77.1 nM. Moreover, the EC50 with SARS-CoV-2-NLuc worked out at 171 nM. `COc1cc(-c2cc3c(s2)c(=O)n(-c2cncc4cnn(C)c24)c(=O)n3CC2(CC#N)CC2)c(Cl)cc1F` [Example 659]: in test [1] (setting [2]), the IC50 worked out at 40.9 nM.
